The text below walks through data of publication PMC3374801, “Artemisinin Inhibits Chloroplast Electron Transport Activity: Mode of Action” (PLoS ONE, 2012).

Entries after “also recorded” stand apart in the source; their conditions may differ.

Test [1] concerns spinach thylakoids. In words: In vitro effect of artemisinin on FeCN supported O2 evolution (electron transport) of isolated thylakoids. Particulars: for artemisinin-mediated inhibition of electron transport: 744 µM. It counts as biochemical, spinach (Beta palonga). As to the method:
Thylakoids were isolated from spinach and rice leaves following with some modifications. Leaves were homogenized in cold grinding buffer [50 mM tricine-NaOH (pH 7.5), 400 mM sucrose, 5 mM MgCl2 and 5 mM KCl]. The homogenate was filtered through Miracloth and the filtrate was centrifuged at 5000×g for 5 min. The chloroplast pellet was washed in 5 mM tricine-NaOH (pH 7.5) buffer containing, 400 mM sucrose and 2 mM MgCl2 and centrifuged at 300×g for 1 min. The supernatant was re-centrifuged at 5000×g for 5 min. The pellet (thylakoids) was finally taken up in a minimal volume of suspending buffer [20 mM tricine-NaOH (pH 7.5), 100 mM sucrose and 5 mM MgCl2]. Chlorophyll concentration in methanolic extract was measured spectrophotometrically.
Photosystem II, PSI and whole chain (PSII plus PSI) catalyzed electron transport activities were measured as oxygen (O2) evolution or uptake in a Clarke type O2 electrode assembly (Hansatech) at 22±1°C using site-specific artificial electron acceptors, donors, and inhibitors, [26]. The light was rate-saturating (500 µE m^−2 s^−1). Phosphorylating electron transport was measured with addition of 1 mM ADP and 5 mM K2HPO4 (iP) to basal electron transport components (25 mM hepes-NaOH (pH-7.5), 100 mM sucrose, 5 mM MgCl2 and 20 µg Chl. ml^−1). NH4Cl and GS were used at a final concentration of 5 mM and 10 µM respectively as and when required. The whole chain electron flow was assayed in presence of 2 mM FeCN as terminal electron acceptor of PSI. pBQ and DQ (400 µM) were used to measure PSII catalyzed electron flow. To measure PSI catalyzed electron flow, DCIPH2 (1 mM DCIP plus 2 mM ascorbate) was used as electron donor to cytochrome b6/f region and 1 mM MV as transient electron acceptor. The PSI reaction mixture additionally contained 2 mM sodium azide (catalase inhibitor) and 10 µM DCMU (PSII inhibitor).

Test [2] deals with rice leaves. In words: Fast Chl. a (O-J-I-P) fluorescence transient in leaves of artemisinin sprayed plants. Format: in vivo, Rice (Oryza sativa var. Safari). As to the method:
(§1) Twenty one day old rice plants were sprayed with artemisinin twice at a 24 h interval. One mililiter of 74.4 mM artemisinin in 1% (V/V) DMSO, 0.1% (V/V) TWEEN-20 was diluted 100 fold with water and used to treat 40 plants (∼1.86 µmol of artemisinin/plant). Control plants were sprayed with the same solution without artemisinin. The 4th (quaternary) leaf was harvested 20 h after the 2nd spray and used for all experiments. The individual effect of the surfactant and DMSO-plus-surfactant was first evaluated against water control. Since no effect was obtained with these variations, we have routinely used the DMSO plus the surfactant sprayed leaves as control against artemisinin treated leaves and in figures the same has been depicted as DMSO (control). The room temperature Chl. a fluorescence technique was used to study the photosynthetic activity in intact leaf samples. The fast Chl. a transients (O-J-I-P) in millisecond (ms) time span was studied with plant efficiency analyzer (Handy PEA fluorimeter) following Strasser et al., while the relative thylakoid electron transport, membrane energization and carbon fixation activities were evaluated from slow fluorescence transients, obtained using FMS2 instrument (Hansatech) as per the detail outlined in Baker. The readouts from Handy PEA were analyzed using biolyzerhp3 software.

The test system of test [3] is rice leaves. In words: Slow Chl. a fluorescence kinetics in leaves of artemisinin sprayed plants. It counts as in vivo, Rice (Oryza sativa var. Safari). The note with it: dark adapted 20 min. As to the method:
as §1

Test [4] has as its system whole chain (H2O to FeCN) electron flow in thylakoids. Briefly: Whole chain (H2O to FeCN) electron flow in thylakoids isolated from leaves of sprayed plants. Format: in vivo, Rice (Oryza sativa var. Safari). As to the method:
(§2) Twenty one day old rice plants were sprayed with artemisinin twice at a 24 h interval. One mililiter of 74.4 mM artemisinin in 1% (V/V) DMSO, 0.1% (V/V) TWEEN-20 was diluted 100 fold with water and used to treat 40 plants (∼1.86 µmol of artemisinin/plant). Control plants were sprayed with the same solution without artemisinin. The 4th (quaternary) leaf was harvested 20 h after the 2nd spray and used for all experiments. The individual effect of the surfactant and DMSO-plus-surfactant was first evaluated against water control. […]
(§3) Thylakoids were isolated from spinach and rice leaves following with some modifications. […] Chlorophyll concentration in methanolic extract was measured spectrophotometrically.
(§4) Photosystem II, PSI and whole chain (PSII plus PSI) catalyzed electron transport activities were measured as oxygen (O2) evolution or uptake in a Clarke type O2 electrode assembly (Hansatech) at 22±1°C using site-specific artificial electron acceptors, donors, and inhibitors, [26]. […] Phosphorylating electron transport was measured with addition of 1 mM ADP and 5 mM K2HPO4 (iP) to basal electron transport components (25 mM hepes-NaOH (pH-7.5), 100 mM sucrose, 5 mM MgCl2 and 20 µg Chl. ml^−1). […]

Test [5] deals with T1, PSII (Oryza sativa subsp. japonica, UniProt P0C434).
T1 construct: Thylakoids were isolated from spinach and rice leaves; from tissue; host or cells: thylakoid membranes from the 4th leaf of 21-day-old rice plants
Briefly: PSII (H2O to pBQ) catalyzed electron flow in thylakoids isolated from leaves of sprayed plants. It counts as in vivo, Rice (Oryza sativa var. Safari). The note with it: thylakoids of treated rice leaves. As to the method:
as §2, §3, §4

Test [6] relates to PSI. Briefly: PSI (DCIPH2 to MV) catalyzed electron flow in thylakoids isolated from leaves of sprayed plants. Format: in vivo, Rice (Oryza sativa var. Safari). The note with it: thylakoids of treated rice leaves. As to the method:
as §2, §3, §4

Test [7] has as its system PQH2 pool (PSII catalyzed electron flow from water to DQ). In words: Kinetics of DQ supported electron transport rate in thylakoids from treated leaves. Format: in vivo. The note with it: control versus treated thylakoids. As to the method: as §2, §3, §4
For test [8], the system named is Chl. pigment synthesis. In words: Chlorophyll quantification in sprayed plants. The note with it: treated versus control leaves. Format: in vivo, Rice (Oryza sativa var. Safari). As to the method:
Twenty one day old rice plants were sprayed with artemisinin twice at a 24 h interval. One mililiter of 74.4 mM artemisinin in 1% (V/V) DMSO, 0.1% (V/V) TWEEN-20 was diluted 100 fold with water and used to treat 40 plants (∼1.86 µmol of artemisinin/plant). Control plants were sprayed with the same solution without artemisinin. The 4th (quaternary) leaf was harvested 20 h after the 2nd spray and used for all experiments. The individual effect of the surfactant and DMSO-plus-surfactant was first evaluated against water control. Since no effect was obtained with these variations, we have routinely used the DMSO plus the surfactant sprayed leaves as control against artemisinin treated leaves and in figures the same has been depicted as DMSO (control). Thylakoids were isolated from spinach and rice leaves following with some modifications. Leaves were homogenized in cold grinding buffer [50 mM tricine-NaOH (pH 7.5), 400 mM sucrose, 5 mM MgCl2 and 5 mM KCl]. The homogenate was filtered through Miracloth and the filtrate was centrifuged at 5000×g for 5 min. […] Chlorophyll concentration in methanolic extract was measured spectrophotometrically. Supplementary file pone.0038942.s002.doc: Figure S2 Chlorophyll quantification in plants sprayed with DMSO and artemisinin. […]

In test [9] the test system is rice plant. Briefly: Long term effect of artemisinin administration to rice plant. Format: in vivo. The note with it: 5 consecutive alternate day sprays. As to the method:
Supplementary file pone.0038942.s005.doc: Figure S5 Long term effect of artemisinin administration to rice plant. The plants were treated with artemisinin for 5 consecutive alternate day sprays. […] (DOC) Click here for additional data file.

The test system of test [10] is lettuce and annual wormwood. More on the design: method as in earlier work. The note with it: 33 µM; cited from earlier work.
Test [11] relates to lettuce, redroot pigweed, pitted morning glory, annual wormwood and common purslane. More on the design: method as in earlier work. The note with it: 33 µM; cited from earlier work.
Test [12] deals with yeast cells. More on the design: method as in PMID 16170412. Particulars: 80 µM; cited from earlier work.

On to `C[C@@H]1CC[C@H]2[C@@H](C)C(=O)O[C@@H]3O[C@@]4(C)CC[C@@H]1[C@]32OO4` [Artemisinin], for which the “inhibition of control activity (FeCN supported electron transport / O2 evolution)” value in [1] (744 µM artemisinin, basal (loosely coupled) thylakoids, relative to DMSO control) is recorded as 65–70%. Moreover, the “artemisinin-mediated inhibition of electron transport” value is recorded as 45–50% in test [1] (phosphorylating condition (plus ADP and iP)); 15–20% in test [1] (phosphorylating condition, in presence of NH4Cl); 20–25% in [1] (phosphorylating condition, with GS). Also, the “effect on electron flow from water to QA” value in test [2] (from DCMU (20 µM) sensitivity of the fluorescence induction curves) is recorded as “insensitive”. For the same molecule, the “effect on O-J-I-P fluorescence transient” value in [2] (leaves of sprayed rice plants) is “disappearance of the FI – FP transient”. Further, the “Rfd (fluorescence decline ratio from 'p' to 't' level)” value in [3] worked out at 0.08±0.006. In test [4] (thylakoids of treated rice leaves (~1.86 µmol/plant)), the “reduction of FeCN supported whole chain electron transport rate as compared to control” value is on record as 80–85%. Moreover, the “inhibitory affect in loosely coupled (basal) versus chemically uncoupled (NH4Cl or GS) thylakoids” value in [4] (thylakoids of treated rice leaves, FeCN as acceptor) is “persistent to a comparable extent”. Also, in [5], the “reduction in rate of pBQ supported PSII catalyzed electron transport” value is 65–70%. The “reduction of PSI catalyzed electron flow from DCIPH2 to MV as compared to control” value in test [6] was 10–15%. Moreover, the “DQ supported electron transport rate, times higher in the absence of artemisinin” value in [7] was 5 times. Further, the “effect on Chl. pigment synthesis (Chl. concentration)” value in test [8] was “no affect on the Chl. pigment synthesis”. Also, the “long term effect on plants” value in test [9] was “death of plant; also recorded: complete death of the plants”. For the same molecule, the effect on germination entry in [10] was “inhibited the germination”. Moreover, the “effect on growth of roots and shoots” value in test [11] is “inhibited”. In addition, the “effect on growth of yeast cells” value in test [12] was “arrests the growth”.
